{"source": "ChEMBL document CHEMBL5696442", "about": "“Discovery of type II inhibitors of TGFβ-activated kinase 1 (TAK1) and mitogen-activated protein kinase kinase kinase kinase 2 (MAP4K2)” (J Med Chem, 2015)", "key": {"[1]": {"molecular_target": "Serine/threonine-protein kinase DCLK3 (Homo sapiens) (UniProt Q9C098)", "test": "Inhibition of DCAMKL3 (unknown origin) at 10 uM by Ambit Kinomescan binding assay"}, "[2]": {"molecular_target": "T1, Serine/threonine-protein kinase LATS1 (Homo sapiens) (UniProt O95835)", "T1 sequence (whole entry)": "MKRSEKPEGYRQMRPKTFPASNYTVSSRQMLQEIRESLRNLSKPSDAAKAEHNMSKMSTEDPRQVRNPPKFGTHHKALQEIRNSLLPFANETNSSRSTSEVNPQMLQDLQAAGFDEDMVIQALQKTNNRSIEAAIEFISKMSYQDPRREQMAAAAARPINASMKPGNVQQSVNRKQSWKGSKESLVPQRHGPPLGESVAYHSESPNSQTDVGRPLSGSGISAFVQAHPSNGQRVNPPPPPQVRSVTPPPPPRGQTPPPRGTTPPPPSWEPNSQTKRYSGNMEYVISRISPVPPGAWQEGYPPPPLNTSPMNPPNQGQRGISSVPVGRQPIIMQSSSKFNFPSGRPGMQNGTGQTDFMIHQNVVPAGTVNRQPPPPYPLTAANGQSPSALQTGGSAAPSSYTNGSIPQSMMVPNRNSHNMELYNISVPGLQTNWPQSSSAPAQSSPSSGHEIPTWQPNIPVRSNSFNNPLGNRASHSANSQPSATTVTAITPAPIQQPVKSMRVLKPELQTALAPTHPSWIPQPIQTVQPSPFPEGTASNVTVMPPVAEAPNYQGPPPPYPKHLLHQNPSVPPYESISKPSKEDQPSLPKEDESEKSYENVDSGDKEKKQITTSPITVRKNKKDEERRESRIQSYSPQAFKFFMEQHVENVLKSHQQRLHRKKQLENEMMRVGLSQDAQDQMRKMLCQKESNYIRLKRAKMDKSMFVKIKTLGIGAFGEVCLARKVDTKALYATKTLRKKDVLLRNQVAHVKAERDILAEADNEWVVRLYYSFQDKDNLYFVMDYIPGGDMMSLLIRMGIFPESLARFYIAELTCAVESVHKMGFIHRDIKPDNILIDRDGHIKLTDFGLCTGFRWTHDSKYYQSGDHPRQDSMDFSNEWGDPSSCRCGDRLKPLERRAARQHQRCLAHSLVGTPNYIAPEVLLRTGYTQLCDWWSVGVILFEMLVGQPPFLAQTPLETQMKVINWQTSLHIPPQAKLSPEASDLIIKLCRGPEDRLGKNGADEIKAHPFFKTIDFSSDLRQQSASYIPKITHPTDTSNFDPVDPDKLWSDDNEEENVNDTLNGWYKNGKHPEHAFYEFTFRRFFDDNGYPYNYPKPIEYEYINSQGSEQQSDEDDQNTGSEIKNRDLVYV", "test": "Inhibition of LATS1 Lys2 labeling site in human A-375 cells at 0.05 uM by KiNativ Profiling analysis relative to control", "format": "cell-based"}, "[3]": {"test_system": "Receptor-type tyrosine-protein kinase FLT3 (Homo sapiens), P36888 [D835H]", "test": "Inhibition of FLT3 D835H mutant (unknown origin) at 10 uM by Ambit Kinomescan binding assay relative to control"}, "[4]": {"molecular_target": "Tyrosine-protein kinase ABL2 (Homo sapiens, UniProt P42684)", "test": "Inhibition of ARG Lys1 labeling site in human A-375 cells at 0.05 uM by KiNativ Profiling analysis relative to control", "format": "cell-based"}, "[5]": {"molecular_target": "Ribosomal protein S6 kinase alpha-1 (Homo sapiens) (UniProt Q15418)", "test": "Inhibition of N-terminal RPS6KA1 kinase domain 1 (unknown origin) at 10 uM by Ambit Kinomescan binding assay"}, "[6]": {"molecular_target": "Phosphatidylinositol 4,5-bisphosphate 3-kinase catalytic subunit gamma isoform (Homo sapiens) (UniProt P48736)", "test": "Inhibition of PIK3CG (unknown origin) at 10 uM by Ambit Kinomescan binding assay"}, "[7]": {"molecular_target": "STE20/SPS1-related proline-alanine-rich protein kinase (Homo sapiens) (UniProt Q9UEW8)", "test": "Inhibition of STLK3 Lys2 labeling site in human Huh-7 cells at 1 uM by KiNativ Profiling analysis relative to control", "format": "cell-based"}, "[8]": {"molecular_target": "Ribosomal protein S6 kinase delta-1 (Homo sapiens) (UniProt Q96S38)", "sequence (Q96S38 whole entry, the tested form may be a part)": "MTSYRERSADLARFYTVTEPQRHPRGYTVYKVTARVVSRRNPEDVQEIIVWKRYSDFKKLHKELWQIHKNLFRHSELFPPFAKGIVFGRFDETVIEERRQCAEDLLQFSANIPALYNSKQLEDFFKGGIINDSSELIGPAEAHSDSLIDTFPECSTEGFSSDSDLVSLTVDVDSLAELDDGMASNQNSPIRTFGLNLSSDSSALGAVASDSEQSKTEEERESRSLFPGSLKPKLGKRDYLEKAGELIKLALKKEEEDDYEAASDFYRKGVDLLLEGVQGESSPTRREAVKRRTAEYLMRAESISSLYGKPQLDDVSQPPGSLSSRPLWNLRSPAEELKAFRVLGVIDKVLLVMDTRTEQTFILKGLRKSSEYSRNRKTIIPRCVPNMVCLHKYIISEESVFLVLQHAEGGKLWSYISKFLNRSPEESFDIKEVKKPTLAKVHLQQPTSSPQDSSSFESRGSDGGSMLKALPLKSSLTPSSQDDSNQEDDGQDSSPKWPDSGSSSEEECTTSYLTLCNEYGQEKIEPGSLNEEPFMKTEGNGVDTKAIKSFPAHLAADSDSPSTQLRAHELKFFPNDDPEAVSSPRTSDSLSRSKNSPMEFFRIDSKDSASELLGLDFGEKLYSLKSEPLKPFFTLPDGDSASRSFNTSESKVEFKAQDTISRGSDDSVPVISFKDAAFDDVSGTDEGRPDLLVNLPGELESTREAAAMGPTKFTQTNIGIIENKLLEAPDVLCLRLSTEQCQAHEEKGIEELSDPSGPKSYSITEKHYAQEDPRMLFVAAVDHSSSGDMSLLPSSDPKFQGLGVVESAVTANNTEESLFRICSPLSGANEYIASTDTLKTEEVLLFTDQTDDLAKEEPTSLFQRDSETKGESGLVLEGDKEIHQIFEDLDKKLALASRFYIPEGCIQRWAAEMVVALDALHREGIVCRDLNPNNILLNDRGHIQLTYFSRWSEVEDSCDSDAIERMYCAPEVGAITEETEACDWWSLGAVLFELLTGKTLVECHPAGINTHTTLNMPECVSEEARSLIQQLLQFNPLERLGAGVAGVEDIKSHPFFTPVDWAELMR", "test": "Inhibition of RSKL1 domain1 Protein Kinase Domain labeling site in human Huh-7 cell lysate at 1 uM by KiNativ Profiling analysis relative to control", "format": "subcellular"}, "[9]": {"molecular_target": "Serine/threonine-protein kinase SIK1 (Homo sapiens) (UniProt P57059)", "sequence (P57059 whole entry)": "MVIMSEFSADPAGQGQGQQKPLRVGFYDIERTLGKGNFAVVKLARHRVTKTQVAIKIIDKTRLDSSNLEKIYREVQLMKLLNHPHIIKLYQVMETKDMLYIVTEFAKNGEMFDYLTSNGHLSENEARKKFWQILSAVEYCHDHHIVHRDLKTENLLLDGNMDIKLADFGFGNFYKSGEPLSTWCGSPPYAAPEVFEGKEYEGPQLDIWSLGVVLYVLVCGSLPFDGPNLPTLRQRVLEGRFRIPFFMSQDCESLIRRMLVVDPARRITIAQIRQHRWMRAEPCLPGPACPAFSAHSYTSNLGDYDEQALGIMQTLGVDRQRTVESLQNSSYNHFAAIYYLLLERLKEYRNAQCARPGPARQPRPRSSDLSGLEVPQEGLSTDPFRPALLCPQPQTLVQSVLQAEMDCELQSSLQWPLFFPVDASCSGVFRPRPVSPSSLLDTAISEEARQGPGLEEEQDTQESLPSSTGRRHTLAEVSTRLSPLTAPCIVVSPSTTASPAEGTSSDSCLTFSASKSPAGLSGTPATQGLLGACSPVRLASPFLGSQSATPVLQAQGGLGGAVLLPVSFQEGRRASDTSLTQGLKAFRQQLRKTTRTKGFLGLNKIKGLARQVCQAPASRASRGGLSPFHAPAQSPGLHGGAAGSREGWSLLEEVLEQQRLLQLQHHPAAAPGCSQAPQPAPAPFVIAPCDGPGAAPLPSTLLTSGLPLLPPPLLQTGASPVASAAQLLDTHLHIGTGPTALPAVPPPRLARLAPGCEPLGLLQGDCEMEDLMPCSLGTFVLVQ", "test": "Inhibition of SIK Lys2 labeling site in human Huh-7 cell lysate at 1 uM by KiNativ Profiling analysis relative to control", "format": "subcellular"}, "[10]": {"molecular_target": "Phosphatidylinositol 3-kinase catalytic subunit type 3 (Homo sapiens) (UniProt Q8NEB9)", "sequence (Q8NEB9 whole entry)": "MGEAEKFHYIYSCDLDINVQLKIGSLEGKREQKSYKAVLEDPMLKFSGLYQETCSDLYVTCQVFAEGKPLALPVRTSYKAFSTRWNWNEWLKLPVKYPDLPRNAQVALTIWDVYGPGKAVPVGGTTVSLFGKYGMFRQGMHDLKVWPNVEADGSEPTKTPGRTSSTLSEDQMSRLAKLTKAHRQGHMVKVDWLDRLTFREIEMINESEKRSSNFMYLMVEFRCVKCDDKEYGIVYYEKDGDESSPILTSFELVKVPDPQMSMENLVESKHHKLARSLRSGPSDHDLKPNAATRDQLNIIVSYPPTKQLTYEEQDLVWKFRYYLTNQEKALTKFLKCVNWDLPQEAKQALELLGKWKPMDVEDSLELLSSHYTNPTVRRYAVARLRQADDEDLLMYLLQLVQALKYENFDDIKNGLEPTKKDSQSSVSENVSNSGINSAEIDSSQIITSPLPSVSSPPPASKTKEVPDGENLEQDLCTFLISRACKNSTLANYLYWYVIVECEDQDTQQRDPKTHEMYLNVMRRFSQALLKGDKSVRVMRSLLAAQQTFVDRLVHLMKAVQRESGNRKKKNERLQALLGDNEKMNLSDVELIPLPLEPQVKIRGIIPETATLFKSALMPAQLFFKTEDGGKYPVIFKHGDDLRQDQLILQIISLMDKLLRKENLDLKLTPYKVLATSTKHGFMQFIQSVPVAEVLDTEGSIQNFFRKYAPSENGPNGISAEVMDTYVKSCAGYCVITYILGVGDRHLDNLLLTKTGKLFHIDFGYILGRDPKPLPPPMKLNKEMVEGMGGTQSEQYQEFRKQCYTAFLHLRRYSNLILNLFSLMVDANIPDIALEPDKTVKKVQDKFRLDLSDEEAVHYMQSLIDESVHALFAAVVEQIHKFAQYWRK", "test": "Inhibition of PIK3C3 ATP labeling site in human Huh-7 cells at 1 uM by KiNativ Profiling analysis relative to control", "format": "cell-based"}, "[11]": {"molecular_target": "Ribosomal protein S6 kinase alpha-3 (Homo sapiens) (UniProt P51812)", "sequence (P51812 whole entry, the tested form may be a part)": "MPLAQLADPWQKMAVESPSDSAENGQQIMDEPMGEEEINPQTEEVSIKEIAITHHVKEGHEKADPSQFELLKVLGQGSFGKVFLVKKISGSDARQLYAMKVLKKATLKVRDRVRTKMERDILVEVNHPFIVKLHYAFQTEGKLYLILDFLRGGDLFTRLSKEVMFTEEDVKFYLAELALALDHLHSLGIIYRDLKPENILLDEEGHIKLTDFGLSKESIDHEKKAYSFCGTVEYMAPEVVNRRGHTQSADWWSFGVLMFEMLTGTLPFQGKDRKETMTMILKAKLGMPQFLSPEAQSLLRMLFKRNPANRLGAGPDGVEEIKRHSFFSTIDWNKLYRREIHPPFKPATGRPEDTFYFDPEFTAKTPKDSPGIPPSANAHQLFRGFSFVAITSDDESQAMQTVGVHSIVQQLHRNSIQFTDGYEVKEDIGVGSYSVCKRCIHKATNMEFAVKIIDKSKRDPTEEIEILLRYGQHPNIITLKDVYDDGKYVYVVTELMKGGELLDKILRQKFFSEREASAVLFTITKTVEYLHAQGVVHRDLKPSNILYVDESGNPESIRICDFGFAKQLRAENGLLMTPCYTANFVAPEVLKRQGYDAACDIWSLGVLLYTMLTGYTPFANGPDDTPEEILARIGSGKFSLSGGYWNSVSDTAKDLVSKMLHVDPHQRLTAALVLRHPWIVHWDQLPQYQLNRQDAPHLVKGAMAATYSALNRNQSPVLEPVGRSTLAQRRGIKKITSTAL", "test": "Inhibition of RSK2 domain1 ATP labeling site in human Huh-7 cell lysate at 1 uM by KiNativ Profiling analysis relative to control", "format": "subcellular"}, "[12]": {"molecular_target": "Phosphatidylinositol 4-kinase beta (Homo sapiens) (UniProt Q9UBF8)", "sequence (Q9UBF8 2-816 limits assumed)": "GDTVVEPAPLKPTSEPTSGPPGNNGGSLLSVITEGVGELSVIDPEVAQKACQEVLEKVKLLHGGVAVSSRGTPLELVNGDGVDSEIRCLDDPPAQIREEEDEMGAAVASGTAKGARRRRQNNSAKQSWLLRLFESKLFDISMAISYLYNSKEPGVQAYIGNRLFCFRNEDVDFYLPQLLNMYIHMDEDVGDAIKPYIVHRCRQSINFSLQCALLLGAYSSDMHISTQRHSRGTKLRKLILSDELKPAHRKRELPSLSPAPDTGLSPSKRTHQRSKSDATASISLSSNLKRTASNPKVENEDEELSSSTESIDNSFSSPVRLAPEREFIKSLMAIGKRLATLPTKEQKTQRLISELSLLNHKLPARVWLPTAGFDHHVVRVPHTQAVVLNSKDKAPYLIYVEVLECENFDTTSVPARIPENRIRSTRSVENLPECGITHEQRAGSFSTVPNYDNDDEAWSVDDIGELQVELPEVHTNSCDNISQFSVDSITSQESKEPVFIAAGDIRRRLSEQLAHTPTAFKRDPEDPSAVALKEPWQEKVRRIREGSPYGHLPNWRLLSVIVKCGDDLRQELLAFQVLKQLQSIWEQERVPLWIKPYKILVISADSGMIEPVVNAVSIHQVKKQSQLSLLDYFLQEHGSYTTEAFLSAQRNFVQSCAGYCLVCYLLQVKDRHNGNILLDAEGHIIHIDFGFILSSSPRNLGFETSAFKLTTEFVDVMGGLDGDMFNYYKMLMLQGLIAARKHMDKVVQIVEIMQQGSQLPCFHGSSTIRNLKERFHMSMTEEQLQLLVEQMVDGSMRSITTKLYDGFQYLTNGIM", "test": "Inhibition of PI4KB ATP labeling site harbouring VPHTQAVVLNSKDKAPYLIYVEVLECENFDTTSVPAR in human A-375 cells at 0.5 uM by KiNativ Profiling analysis relative to control", "format": "cell-based"}, "[13]": {"test_system": "Tyrosine-protein kinase ABL1 (Homo sapiens), P00519 [Q252H]", "test": "Inhibition of phosphorylated ABL1 Q252H mutant (unknown origin) at 1 uM by Ambit Kinomescan binding assay relative to control; values are per cent of control"}, "[14]": {"molecular_target": "Ribosomal protein S6 kinase alpha-4 (Homo sapiens) (UniProt O75676)", "test": "Inhibition of N-terminal RPS6KA4 kinase domain 1 (unknown origin) at 1 uM by Ambit Kinomescan binding assay relative to control"}, "[15]": {"molecular_target": "Casein kinase I isoform gamma-3 (Homo sapiens) (UniProt Q9Y6M4)", "test": "Inhibition of CSNK1G3 (unknown origin) at 1 uM by Ambit Kinomescan binding assay relative to control"}, "[16]": {"molecular_target": "Dual specificity tyrosine-phosphorylation-regulated kinase 2 (Homo sapiens) (UniProt Q92630)", "test": "Inhibition of DYRK2 (unknown origin) at 1 uM by Ambit Kinomescan binding assay relative to control; values are per cent of control"}, "[17]": {"molecular_target": "cAMP-dependent protein kinase catalytic subunit PRKX (Homo sapiens) (UniProt P51817)", "test": "Inhibition of PRKX (unknown origin) at 1 uM by Ambit Kinomescan binding assay relative to control"}, "[18]": {"molecular_target": "Tyrosine-protein kinase Yes (Homo sapiens) (UniProt P07947)", "sequence (P07947 2-543 limits assumed)": "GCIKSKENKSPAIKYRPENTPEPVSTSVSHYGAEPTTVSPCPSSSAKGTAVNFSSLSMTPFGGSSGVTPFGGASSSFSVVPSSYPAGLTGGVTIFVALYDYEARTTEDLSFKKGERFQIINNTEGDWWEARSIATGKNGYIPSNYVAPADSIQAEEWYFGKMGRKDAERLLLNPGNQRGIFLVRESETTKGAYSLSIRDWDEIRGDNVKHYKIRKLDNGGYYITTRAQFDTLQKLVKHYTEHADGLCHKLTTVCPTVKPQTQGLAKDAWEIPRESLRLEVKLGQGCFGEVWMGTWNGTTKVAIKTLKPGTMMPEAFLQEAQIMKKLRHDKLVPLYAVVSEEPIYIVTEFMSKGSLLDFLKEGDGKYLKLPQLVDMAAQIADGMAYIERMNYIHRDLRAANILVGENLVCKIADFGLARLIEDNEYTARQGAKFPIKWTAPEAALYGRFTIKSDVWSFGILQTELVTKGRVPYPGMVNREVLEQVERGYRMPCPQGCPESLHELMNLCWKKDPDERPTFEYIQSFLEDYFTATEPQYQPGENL", "test": "Inhibition of YES ACT labeling site in human A-375 cells at 0.05 uM by KiNativ Profiling analysis relative to control", "format": "cell-based"}, "[19]": {"molecular_target": "Cyclin-dependent kinase 4/cyclin D1 (Homo sapiens) (UniProt P11802+P24385)", "test": "Inhibition of CDK4/cyclinD1 (unknown origin) at 1 uM by Ambit Kinomescan binding assay relative to control; values are per cent of control"}}, "note": "Active and inactive are the calls of the source. The rule behind the calls is not given here.", "data": [{"molecule": "CCN1CCN(Cc2ccc(NC(=O)c3ccc(C)c(Oc4ccnc5[nH]ccc45)c3)cc2C(F)(F)F)CC1", "values": [{"measurement": "inhibition", "setting": "[1]", "result": "inactive"}, {"measurement": "inhibition", "setting": "[2]", "result": 14.5, "unit": "%"}, {"measurement": "inhibition", "setting": "[3]", "result": 1.2, "unit": "%"}, {"measurement": "inhibition", "setting": "[4]", "result": 84.8, "unit": "%"}, {"measurement": "inhibition", "setting": "[5]", "result": "inactive"}, {"measurement": "inhibition", "setting": "[6]", "result": "inactive"}]}, {"molecule": "CNc1cc(Oc2cc(C(=O)Nc3cc(N4CCN(C)CC4)cc(C(F)(F)F)c3)ccc2C)ncn1", "values": [{"measurement": "inhibition", "setting": "[7]", "result": 57.3, "unit": "%"}, {"measurement": "inhibition", "setting": "[8]", "result": 15.7, "unit": "%"}, {"measurement": "inhibition", "setting": "[9]", "result": -1.3, "unit": "%"}, {"measurement": "inhibition", "setting": "[10]", "result": 8.9, "unit": "%"}, {"measurement": "inhibition", "setting": "[11]", "result": -2.6, "unit": "%"}]}, {"molecule": "CCN1CCN(Cc2ccc(NC(=O)c3ccc(C)c(/C=C/c4cnc5[nH]ccc5c4OC)c3)cc2C(F)(F)F)CC1", "values": [{"measurement": "inhibition", "setting": "[12]", "result": 18.3, "unit": "%"}, {"measurement": "percent of control", "setting": "[13]", "result": 1.2, "unit": "%"}, {"measurement": "inhibition", "setting": "[14]", "result": 72, "unit": "%"}, {"measurement": "inhibition", "setting": "[15]", "result": 71, "unit": "%"}, {"measurement": "residual activity", "setting": "[16]", "result": 68, "unit": "%"}, {"measurement": "inhibition", "setting": "[17]", "result": 57, "unit": "%"}, {"measurement": "inhibition", "setting": "[18]", "result": 38.9, "unit": "%"}, {"measurement": "percent of control", "setting": "[19]", "result": 100, "unit": "%"}]}]}
